According to ChEMBL document CHEMBL1201862, “PubChem BioAssay data set” (2004):
Active and inactive are the calls of the source.

Experiments:
Trypsin = Trypsin (Sus scrofa, UniProt P00761); assay: porcine trypsin inhibitors, dose response, selectivity assay for Rce1 protease inhibitor project, biochemical, quenched peptide fluorescence, cherry-pick (AID 488789)
CAAX prenyl protease 2 [1] = biological target: CAAX prenyl protease 2 (Saccharomyces cerevisiae S288c, UniProt Q03530); format: biochemical
Chain of CAAX prenyl protease 2 (Saccharomyces cerevisiae S288c, UniProt Q03530) (Q03530 whole entry): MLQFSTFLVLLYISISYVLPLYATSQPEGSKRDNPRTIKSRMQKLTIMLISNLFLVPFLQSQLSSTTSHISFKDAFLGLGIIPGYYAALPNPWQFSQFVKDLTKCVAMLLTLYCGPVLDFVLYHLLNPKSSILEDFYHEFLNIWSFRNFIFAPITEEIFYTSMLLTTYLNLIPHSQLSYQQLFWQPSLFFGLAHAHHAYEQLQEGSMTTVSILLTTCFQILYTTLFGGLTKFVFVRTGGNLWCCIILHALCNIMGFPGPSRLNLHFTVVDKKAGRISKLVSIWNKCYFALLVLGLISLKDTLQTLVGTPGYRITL

CAAX prenyl protease 2 [2] = biological target: CAAX prenyl protease 2 (Homo sapiens, UniProt Q9Y256); assay: human Rce1 protease inhibitors, dose response, biochemical, yeast membranes, quenched-peptide fluorescence, cherry-pick (AID 588849)
Chain of CAAX prenyl protease 2 (Homo sapiens, UniProt Q9Y256) (Q9Y256 whole entry): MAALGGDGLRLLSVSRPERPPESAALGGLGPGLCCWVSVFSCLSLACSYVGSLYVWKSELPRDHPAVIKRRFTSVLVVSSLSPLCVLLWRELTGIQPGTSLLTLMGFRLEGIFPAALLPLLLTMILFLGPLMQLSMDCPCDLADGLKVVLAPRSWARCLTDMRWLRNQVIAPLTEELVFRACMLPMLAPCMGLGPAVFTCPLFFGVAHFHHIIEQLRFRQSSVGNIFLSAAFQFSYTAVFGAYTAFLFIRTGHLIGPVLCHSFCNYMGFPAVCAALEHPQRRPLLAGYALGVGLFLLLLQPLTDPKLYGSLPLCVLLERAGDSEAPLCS

BJ [3] = assay: cytotoxicity toward BJ-TERT fibroblasts, dose response, cell-based, RAS-independent, luminescence (AID 1933); format: functional; details: Homo sapiens
[4] = biological target: T1, Heat shock factor protein 1 (Mus musculus, UniProt P38532); assay: inhibition of MG132-induced HSE-luciferase signal, confirmation, cell-based, NIH3T3, luminescence, dose retest (AID 2382); format: functional;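 also: NIH3T3 fibroblasts with HSF1-driven luciferase reporter stressed by proteasome inhibitor MG132; luminescence from HSF1-driven luciferase expression after 8 hours of MG132 stress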
T1 sequence (P38532 whole entry): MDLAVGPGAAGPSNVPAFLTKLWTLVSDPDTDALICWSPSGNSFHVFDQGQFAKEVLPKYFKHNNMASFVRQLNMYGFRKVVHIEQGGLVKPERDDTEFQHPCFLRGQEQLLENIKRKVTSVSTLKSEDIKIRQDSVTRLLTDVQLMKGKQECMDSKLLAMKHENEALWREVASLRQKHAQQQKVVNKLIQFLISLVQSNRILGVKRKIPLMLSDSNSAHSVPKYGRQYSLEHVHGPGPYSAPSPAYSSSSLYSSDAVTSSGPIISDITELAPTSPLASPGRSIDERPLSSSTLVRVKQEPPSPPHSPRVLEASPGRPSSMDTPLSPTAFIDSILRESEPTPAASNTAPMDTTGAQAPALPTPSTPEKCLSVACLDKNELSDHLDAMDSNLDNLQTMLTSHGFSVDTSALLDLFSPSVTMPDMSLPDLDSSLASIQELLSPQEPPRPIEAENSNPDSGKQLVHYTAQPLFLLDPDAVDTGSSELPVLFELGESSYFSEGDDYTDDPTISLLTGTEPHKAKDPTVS

BJ [5] = assay: cells; format: functional, cell-based; details: Homo sapiens
[6] = microbe, parasite or virus in culture; format: functional; details: Mycobacterium tuberculosis
BJ [7] = assay: cytotoxicity toward BJ-TERT-LT-ST fibroblasts, dose response, cell-based, RAS-independent, luminescence (AID 1935); format: functional; details: Homo sapiens;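 also: BJ fibroblasts immortalized with TERT plus LT and ST oncogenes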
[8] = cytotoxicity toward DRD oncogenic fibroblasts, dose response, cell-based, non-viral oncogenic, luminescence (AID 1934); format: functional; details: Homo sapiens
[9] = Intein inhibitors as potential Tuberculosis drugs, a cytotoxicity screen. [Related pubchem assays (depositor defined):AID2221, AID2223, AID434968, AID435010, AID449749, AID449750, AID489010]; format: functional
[10] = cytotoxicity in HEK-293T cells, dose response, cytotoxicity control for BCR NF-kB inhibitor project, luminescence, B-cell screen hits (AID 489021); format: functional, cell-based;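 also: HEK-293T cells carrying an NF-kB luciferase reporter; cells exposed to compound for about 14 hours before viability readout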
[11] = biological target: T2, Replicative DNA helicase DnaB (Mycobacterium tuberculosis, UniProt P9WMR3); assay: DnaB intein splicing inhibitors, dose response, biochemical, cell-free fluorescence (AID 449749); format: functional
T2 sequence (P9WMR3 whole entry): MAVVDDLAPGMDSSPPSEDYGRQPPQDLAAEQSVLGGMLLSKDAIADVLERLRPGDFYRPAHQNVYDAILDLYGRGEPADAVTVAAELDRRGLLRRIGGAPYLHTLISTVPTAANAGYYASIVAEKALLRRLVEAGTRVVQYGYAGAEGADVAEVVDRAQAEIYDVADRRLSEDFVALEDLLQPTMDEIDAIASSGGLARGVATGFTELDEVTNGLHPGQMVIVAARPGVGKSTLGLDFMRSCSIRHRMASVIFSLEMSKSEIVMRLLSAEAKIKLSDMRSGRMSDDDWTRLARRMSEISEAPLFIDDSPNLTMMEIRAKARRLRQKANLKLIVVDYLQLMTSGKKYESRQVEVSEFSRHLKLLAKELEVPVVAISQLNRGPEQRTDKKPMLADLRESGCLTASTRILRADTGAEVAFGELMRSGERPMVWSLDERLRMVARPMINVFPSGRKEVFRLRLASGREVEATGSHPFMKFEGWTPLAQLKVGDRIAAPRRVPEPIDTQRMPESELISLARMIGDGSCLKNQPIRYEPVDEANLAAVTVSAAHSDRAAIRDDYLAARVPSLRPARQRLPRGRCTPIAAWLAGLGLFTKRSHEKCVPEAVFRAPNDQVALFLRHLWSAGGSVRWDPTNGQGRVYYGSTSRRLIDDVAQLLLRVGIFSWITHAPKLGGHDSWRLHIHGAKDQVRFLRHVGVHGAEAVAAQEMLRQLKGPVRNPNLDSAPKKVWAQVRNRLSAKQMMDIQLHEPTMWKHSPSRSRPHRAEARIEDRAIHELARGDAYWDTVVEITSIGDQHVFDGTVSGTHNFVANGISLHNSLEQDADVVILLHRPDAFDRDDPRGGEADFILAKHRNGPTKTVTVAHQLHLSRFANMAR

BJ [12] = assay: cytotoxicity toward Ras-transformed BJeLR fibroblasts, dose response, cell-based, alamar blue fluorescence, cherrypicked samples (AID 2631); format: functional; details: Homo sapiens;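 also: confirmatory dose-response assay in RAS-dependent BJ fibroblasts engineered with TERT, LT and ST, with cytotoxicity read by fluorescence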
Protein RecA = biological target: T3, Protein RecA (Mycobacterium tuberculosis, UniProt P9WHJ3); assay: Fluorescence Cell-Free Homogeneous Dose Retest to Identify Inhibitors of RecA-Intein Splicing Activity. [Related pubchem assays (depositor defined):AID2097, AID2223, AID489010, AID492950]; format: functional
T3 sequence (P9WHJ3 whole entry): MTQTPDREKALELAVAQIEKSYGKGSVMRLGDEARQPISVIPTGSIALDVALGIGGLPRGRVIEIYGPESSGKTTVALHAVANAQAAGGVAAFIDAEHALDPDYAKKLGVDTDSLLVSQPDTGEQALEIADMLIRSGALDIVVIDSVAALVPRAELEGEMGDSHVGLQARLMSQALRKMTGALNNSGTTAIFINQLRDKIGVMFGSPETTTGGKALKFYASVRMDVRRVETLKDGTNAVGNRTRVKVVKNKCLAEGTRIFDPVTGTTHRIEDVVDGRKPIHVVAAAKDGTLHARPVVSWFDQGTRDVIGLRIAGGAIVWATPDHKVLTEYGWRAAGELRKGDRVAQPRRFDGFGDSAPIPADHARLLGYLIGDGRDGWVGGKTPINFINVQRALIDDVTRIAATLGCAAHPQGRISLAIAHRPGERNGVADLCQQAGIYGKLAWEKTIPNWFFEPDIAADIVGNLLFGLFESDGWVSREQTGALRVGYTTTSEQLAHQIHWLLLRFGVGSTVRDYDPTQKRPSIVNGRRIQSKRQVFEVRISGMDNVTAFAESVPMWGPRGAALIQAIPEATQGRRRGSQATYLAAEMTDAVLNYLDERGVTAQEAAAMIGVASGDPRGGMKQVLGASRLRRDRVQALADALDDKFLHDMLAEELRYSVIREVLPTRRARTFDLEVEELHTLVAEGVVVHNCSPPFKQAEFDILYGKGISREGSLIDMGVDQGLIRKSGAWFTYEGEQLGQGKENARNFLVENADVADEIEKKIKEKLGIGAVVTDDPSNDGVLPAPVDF

Paired box protein Pax-8 = Paired box protein Pax-8 (Homo sapiens, UniProt Q06710); assay: inhibitors of PAX8-driven TPO luciferase reporter, dose response, RMG-I cells, cherry-pick (AID 687027); format: functional, cell-based;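 also: luciferase reporter driven by Pax8 target thyroperoxidase promoter measured by SteadyGlo luminescence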
Chain of Paired box protein Pax-8 (Q06710 whole entry): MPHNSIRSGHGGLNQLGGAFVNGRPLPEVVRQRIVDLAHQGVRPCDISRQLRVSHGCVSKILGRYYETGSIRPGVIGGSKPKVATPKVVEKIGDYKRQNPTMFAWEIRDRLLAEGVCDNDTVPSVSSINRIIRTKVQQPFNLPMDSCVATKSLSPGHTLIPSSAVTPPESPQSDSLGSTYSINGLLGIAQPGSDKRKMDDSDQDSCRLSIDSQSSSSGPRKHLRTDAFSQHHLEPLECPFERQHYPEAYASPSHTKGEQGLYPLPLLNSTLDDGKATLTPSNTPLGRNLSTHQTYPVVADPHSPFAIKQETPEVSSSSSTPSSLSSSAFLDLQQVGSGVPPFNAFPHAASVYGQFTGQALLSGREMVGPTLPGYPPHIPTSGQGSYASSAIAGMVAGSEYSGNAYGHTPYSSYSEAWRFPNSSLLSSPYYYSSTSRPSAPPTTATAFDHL

[13] = non-specific cell cytotoxicity, dose response, cytotoxicity control for PAX8 inhibitor project, plate reader, dry powder samples (AID 743021); format: functional, cell-based

Chain of Trypsin (P00761 whole entry): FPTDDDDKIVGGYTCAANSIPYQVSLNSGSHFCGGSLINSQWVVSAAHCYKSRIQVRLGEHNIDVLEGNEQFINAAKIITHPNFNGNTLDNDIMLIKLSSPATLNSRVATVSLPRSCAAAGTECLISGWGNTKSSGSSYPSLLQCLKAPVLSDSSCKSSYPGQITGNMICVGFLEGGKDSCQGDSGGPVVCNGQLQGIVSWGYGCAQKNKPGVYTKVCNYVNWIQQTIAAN

SMILES	AC50 (Trypsin)	AC50 (CAAX prenyl protease 2 [1])	AC50 (CAAX prenyl protease 2 [2])	EC50 (BJ [3])	EC50 [4]	EC50 (BJ [5])	CC50 [6]	EC50 (BJ [7])	EC50 [8]	CC50 [9]	IC50 [10]	AC50 [11]	EC50 (BJ [12])	EC50 (Protein RecA)	AC50 (Paired box protein Pax-8)	AC50 [13]
CC1(C(=O)N(CC(=O)NC2CCCC2)Cc2ccccc2)CC(=O)N=C2C=CC=CN21 (stereo unspecified)	4.57 µM (active)	4.24 µM (active)	2.75 µM (active)	–	–	–	–	–	–	–	–	–	–	–	–	–
C=CCOc1ccccc1CN(C(=O)CCl)c1ccc2c(c1)OCO2	–	–	–	0.7 µM (inconclusive)	4.88 µM (active)	4.58 µM (active)	1.68 µM (active)	17.3 µM (inconclusive)	5.04 µM (active)	2.07 µM (active)	62.1 µM (inactive)	2.37 µM (active)	> 66.7 µM (inactive)	0.481 µM (active)	5.46 µM (active)	9.67 µM (active)
